Consider seven compounds from patent US20050272817A1, “Dermatological use and a dermatological preparation” (priority 2000, published 2005).

For assay [1], the system named is psoriatic plaques. In words: Additional embodiment: topical T3A or D-T4 with or without T4A on psoriatic plaques, 35 days. The assay is classed as in vivo, human. The following applies: for effect on psoriatic rash (conclusions, in words): topically administered. The method, then: Simultaneous topical treatment of four untreated, typically scaling and demarcated dermatitic plaques (plaques 1-4) in a psoriatic patient was undertaken. Plaque 5 was left untreated for comparison.
The areas of the plaques at initiation of the treatment were as follows: plaque 1: 5.3 cm^2, plaque 2: 4.9 cm^2, plaque 3: 6.4 cm^2, plaque 4: 5.3 cm^2; plaque 5: 5.6 cm^2.
Triacana® cream containing 200 μg 3,5,3′-triiodothyroacetic acid, T3A, (triac, tiratricol) per gram.
Triacana® cream plus Locobase® unctuous cream containing 500 μg 3,3′,5,5′-tetraiodothyroacetic acid, T4A, per gram (University Pharmacy, Helsinki, Finland. Ex tempore-preparation).
Locobase® unctuous cream containing 2500 μg D-thyroxine, D-T4, per gram (University Pharmacy, Helsinki, Finland. Ex tempore-preparation).
Locobase® unctuous cream containing 2500 μg D-thyroxine, D-T4, per gram (University Pharmacy, Helsinki, Finland. Ex tempore-preparation) plus Locobase® unctuous cream containing 500 μg 3,3′,5,5′-tetraiodothyroacetic acid, T4A, per gram (University Pharmacy, Helsinki, Finland. Ex tempore-preparation).
Triacana® cream was applied to plaques 1 and 2 at 125 mg/cm^2 twice in 24 hours, corresponding to 50 μg 3,5,3′-triiodothyroacetic acid per cm^2 per 24 hours.
T4A-ointment was applied to plaque 2 concurrently with Triacana® cream at 50 mg/cm^2 twice in 24 hours, corresponding to 50 μg 3,3′,5,5′-tetraiodothyroacetic acid per cm^2 per 24 hours.
D-T4-ointment was applied to plaques 3 and 4 at 50 mg/cm^2 twice in 24 hours, corresponding to 250 μg D-T4, per cm^2 per 24 hours.
T4A-ointment was applied to plaque 4 concurrently with the D-T4-ointment at 50 mg/cm^2 twice in 24 hours corresponding to 50 μg/cm^2 3,3′,5,5′-tetraiodothyroacetic acid per cm^2 per 24 hours.
Treatment was continued in this manner for 35 days.

Assay [2] concerns thyroid hormone activity. The following applies: background statement; cited from earlier work.
Assay [3] has as its system psoriatic plaques. The assay can be described thus: Continuation of the therapeutic trial from 35 days onward (to 70 days). The assay is classed as in vivo, human. The following applies: for change (reduction) in plaque area: from day 35: plaque 2 (earlier Daivonex) no treatment, plaque 3 (earlier T4A) Locobase, plaque 4 (earlier T4A+T4) T4 ointment 5 μg/cm^2/24 h; for effect on psoriatic rash (in words): topically applied. The method, then: The therapeutic trial was continued from 35 days onward as follows:
Locobase® ointment containing […], T4, per gram (University Pharmacy, Helsinki, Finland).
As previously, the ointments were applied to the target plaques at 50 mg/cm^2 twice in 24 hours. Thus, the dose of T4 to plaque 4 was 5 μg T4 per cm^2 per 24 hours.

Assay [4] deals with psoriatic plaques. In words: Topical treatment of psoriatic plaques in a psoriatic patient, 35 days. In kind it is in vivo, human. Particulars: for change (reduction) in plaque area: ointment 50 mg/cm^2 twice in 24 hours. An excerpt: Simultaneous topical treatment of four untreated, typically scaling and sharply demarcated dermatitic plaques ([…]) in a psoriatic patient was undertaken. Plaque 5 was left untreated for comparison.
The areas of the plaques at initiation of the treatment were as follows: plaque 1: 8.7 cm^2; plaque 2: 8.1 cm^2; plaque 3: 6.8 cm^2; plaque 4: 6.1 cm^2; plaque 5: 6.4 cm^2.
The following ointments were applied to plaques 1-4:
Locobase.RTM. unctuous cream (Yamanouchi Europe B. V., Leiderup, Holland).
Daivonex.RTM. calcipotriol ointment containing 50µg calcipotriol per gram (L.o slashed.vens Kemiske Fabrik, Ballerup, Denmark).
Locobase.RTM.D unctuous cream containing 500µg 3,3′,5,5′-tetraiodothyroacetic acid, T4A, per gram (University Pharmacy, Helsinki, Finland).
Locobase.RTM. unctuous cream containing 500 μg T4A per gram and […], T4, per gram (University Pharmacy, Helsinki, Finland).
Each ointment was applied to the plaques at 50 mg/cm^2 twice in 24 hours, corresponding to 5µg calcipotriol per cm^2 per 24 hours for plaque 2, 50 μg T4A per cm^2 per 24 hours for plaques 3 and 4, and 5 μg T4 per cm^2 per 24 hours for plaque 4. Treatment was continued in this manner for 35 days.
The results are presented in Table 1 below, showing the change (reduction) in plaque area with time (days).

Assay [5] relates to psoriatic plaque. The assay can be described thus: Topical T4P ointment on a previously untreated psoriatic plaque. The assay is classed as in vivo, human. The following applies: T4P 25 μg/cm^2 twice per 24 hours for 35 days; follow-up 42 days. The method, then:
The topical effect of T4P, 3,3′,5,5′-tetraiodothyropropionic acid ointment on a previously untreated psoriatic plaque, on psoriasis was studied in a therapeutic design identical with the above. The dosage of T4P was 25 μg/cm^2 twice per 24 hours for 35 days. The follow-up period was 42 days. […] Effect of 3,3′,5,5′-tetraiodothyropropionic acid (T4P) ointment on a previously untreated psoriatic plaque. The dosage of T4P was 25 μg/cm^2 twice per 24 hours for 35 days. The follow-up period was 42 days.

Assay [6] relates to psoriasis. Particulars: topical calcipotriol therapy; cited from earlier work.

Turning to `N[C@H](Cc1cc(I)c(Oc2cc(I)c(O)c(I)c2)c(I)c1)C(=O)O` [D-T4, D-thyroxine], the “changes in the area or appearance of the plaque during the whole treatment period” value in assay [1] (35 days, T3A 50 μg/cm^2/24 h or D-T4 250 μg/cm^2/24 h alone) is given as “no visible changes”. Moreover, the “effect on psoriatic rash (conclusions, in words)” value (shortened to “effect … (conclusions, in words)”) in assay [1] is on record as “did not have any visible effect”. Moreover, the “thyroid hormone activity relative to T4” value in assay [2] is “substantially less thyroid hormone activity than T4”.
In the case of `N[C@@H](Cc1cc(I)c(Oc2ccc(O)c(I)c2)c(I)c1)C(=O)O` [T3, 3,3′,5-triiodo-L-thyronine, reference compound], the “thyroid hormone activity relative to T4” value in assay [2] is on record as “five times that of T4”.
`O=C(O)Cc1cc(I)c(Oc2ccc(O)c(I)c2)c(I)c1` [T3A, 3,5,3′-triiodothyroacetic acid]: in assay [1], the “effect … (conclusions, in words)” value was “did not have any visible effect”.
For the compound `N[C@@H](Cc1cc(I)c(Oc2cc(I)c(O)c(I)c2)c(I)c1)C(=O)O` [T4, 3,3′,5,5′-tetraiodo-L-thyronine, reference compound], the “change (reduction) in plaque area” value in assay [3] (42 days) is listed as 70%; in assay [3] (50 days) it was 25%; in assay [3] (62 days), -10%; in assay [3] (70 days), −50% ^. In assay [3] (T4 ointment 5 μg/cm^2/24 h from day 35 to day 70, plaque previously treated with T4A+T4), the “increase of the area of plaque 4 compared with baseline” value is given as 50%. In assay [3], the “effect on psoriatic rash (in words)” value is “worsened”.
Turning to `O=C(O)Cc1cc(I)c(Oc2cc(I)c(O)c(I)c2)c(I)c1` [T4A, 3,3′,5,5′-tetraiodothyroacetic acid], in assay [1], the “effect … (conclusions, in words)” value is “separate and prominent antipsoriatic effect”. In addition, the “change (reduction) in plaque area” value in assay [4] (14 days) is listed as 45%; in assay [4] (21 days), 65%; in assay [4] (28 days) it was 85%; in assay [4] (35 days), 90%; in assay [3] (42 days), 95%; in assay [3] (50 days), 95%. Also, the “change (reduction) in plaque area” value in assay [3] (62 days) was found to be 90%; in assay [3] (70 days) it was 80%. Also, the “effect on psoriatic plaques (in words)” value in assay [4] (35 days topical treatment) was “clear effect”. Further, the “therapeutic efficacy in terms of reduction in plaque area, compared with calcipotriol ointment” value in assay [4] (35 days topical treatment) is listed as “better than that of the calcipotriol ointment”. In assay [3] (topical T4A 50 μg/cm^2/24 h with T4 5 μg/cm^2/24 h), the “inhibition of the rash-worsening effect of T4” value was “completely inhibits this effect”. Further, in assay [3], the “effect on psoriatic rash (in words)” value was “therapeutically efficacious”. For the same compound, the “thyroid hormone activity relative to T4” value in assay [2] is reported as “about one-fourth”.
On to `O=C(O)CCc1cc(I)c(Oc2cc(I)c(O)c(I)c2)c(I)c1` [T4P, 3,3′,5,5′-tetraiodothyropropionic acid], for which, in assay [5], the “inhibition of the effects of T4” value is on record as “completely inhibit the effects of T4” and the “therapeutic efficacy compared with T4A” value was “equal to T4A in therapeutic efficacy”. Besides, the “thyroid hormone activity relative to T4” value in assay [2] was “about one-fourth”.
As to `C=C1/C(=C\C=C2/CCC[C@]3(C)[C@@H]([C@H](C)/C=C/[C@@H](O)C4CC4)CC[C@@H]23)C[C@@H](O)C[C@@H]1O` [calcipotriol], in assay [6], the “complete removal of dermatitic plaques, share of cases” value was “about 15%”.
